Measured values reported in patent US20250228853A1, “Apoptosis Inhibitors” (Queen's University at Kingston, priority 2024, published 2025).
“Also recorded” adds a separate entry of the source.

Columns and labels:
[1] = tested on: BEAS-2B cells infected with HCoV-OC43; assay: apoptosis by TUNEL staining in HCoV-OC43 infected BEAS-2B cells; assay type: cell-based, human; details: for apoptosis (TUNEL positive cells): BEAS-2B, 48 h treatment from 24 h post infection, FIG. 1B; for effectiveness in the in vitro screening to confirm biological activity: in vitro screening as described in the patent
Experimental: (§1) Cell Culture: BEAS-2B cells (an epithelial cell line that was isolated from normal human bronchial epithelium) were purchased from the American Type Culture Collection (ATCC) through Cedarlane Corp., Burlington, Canada. The cells were cultured in bronchial epithelial cell growth medium (Lonza/Clonetics Corporation, Basel, Switzerland) supplemented with 10% fetal bovine serum (FBS). Cells were cultured at 37° C. in a humidified incubator balanced with 5% CO2.
(§2) Compound solution preparation for in vitro experiments: Candidate compounds were dissolved in anhydrous Dimethyl Sulfoxide (DMSO) (available from Sigma Aldrich), filtered by a 0.20 μm PTFE filter and added to culture medium to make a working solution at designated concentrations. Final concentration of DMSO in culture medium was ≤0.1%. Same volume of DMSO was used as control.
(§3) An apoptosis study was conducted (see FIGS. 1A-1C). HCoV-OC43 infection (referred to as “OC43” herein) see Archer, S. L., et al., Redox Biology ([…]) 58:102508) was performed in BEAS-2B cells (an epithelial cell line that was isolated from normal human bronchial epithelium, available from ATCC through Cedarlane Corp., Burlington, Canada). Cells were counted and then seeded in a cell culture plate overnight. The cell culture media was replaced with serum-free media containing 3 focus-forming units (ffu)/cell of OC43 virus. The cells were cultured in this inoculum for 2 hours. Then the inoculum was replaced with complete growth medium and incubated at 33° C. until 72 hours post-infection (the time of the experimental endpoint). Cells were then treated for 48 hours with AIF Inhibitor compounds starting at 24 hours post infection. Concentration of compounds: AIF inhibitor 1, AIF inhibitor 3, and AIF inhibitor 6 were used at a concentration of 10 uM; Drpitor1a, which is a Drp1 inhibitor and is not an AIF inhibitor) was used at a concentration of 1 uM. Cell viability was measured by cell count (see FIG. 1A). Apoptotic cells were measured by TUNEL staining (see FIG. 1B) (see Archer, S. L., et al., Redox Biol. (2022) 58:102508). Cells were dual stained with Click-iT® Plus TUNEL (available from Thermo Fisher, Waltham, MA, USA) and 4′,6-diamidino-2-phenylindole (DAPI) (available from Thermo Fisher, Waltham, MA, USA). Images were captured on a Leica SP8 confocal microscope using a 63×1.4 NA objective and a white light laser at 488 nm. Emission acquisition gating was 510-530 nm (for TUNEL). A 405 nm laser diode was used for DAPI excitation and the emission acquisition gate was set at 420-480 nm. Viral loads were quantified using qRT-PCR (see FIG. 1C). mRNA level of HCoV-OC43 N protein was measured and compared among treatment groups.

HCoV-OC43 = assay: viral load by qRT-PCR of HCoV-OC43 N protein mRNA in BEAS-2B cells; assay type: cell-based, Human coronavirus OC43; details: 48 h treatment from 24 h post infection, FIG. 1C
Experimental: as §1, §2, §3

[2] = tested on: murine hepatitis virus-1 (MHV-1); assay: murine model of MHV-1 pneumonia (lung photographs, micro-CT, hemodynamics); assay type: in vivo; details: 1 mg/kg QD IP 5 days
Experimental: Five-week-old A/J mice (Jackson Labs, Bar Harbour, Maine) were given an intranasal inoculation of either MHV-1 (5000 PFU/17 μl) or an identical volume of saline as control. AIF inhibitor 6 was administered for 5 days (1 mg/kg, QD, IP) post infection. At day 5 post-infection, mice were anesthetized with a single IP injection of ketamine/xylazine (150 mg/kg and 10 mg/kg, respectively). O2 saturation was measured while mice breathed room air, following which they were intubated and mechanically ventilated, which increased their O2 saturation. Transcutaneous O2 saturation was monitored during the procedure using a MouseSTAT® Jr. rodent pulse oximeter attached to the rear paw (Kent Scientific Corporation, Torrington, CT, USA). Right heart catheterization (RHC) was performed using a 1.2F Scisense pressure-volume catheter (Transonic Systems Inc., Ithaca, NY, USA) via a closed chest approach. Mice were ventilated with normoxic gas (room air, 20.6% O2) for 10 minutes, followed by hypoxic gas for 10 minutes (10% 02 balanced with N2) and then followed by normoxic gas (room air, 20.6% O2) for 10 minutes. This regimen was designed to elicit hypoxic pulmonary vasoconstriction (HPV), a normal physiologic response of the pulmonary arteries to airway hypoxia.
Referring to FIGS. 2A-2B, photographs and micro-CT images are shown from a study probing the effect of AIF Inhibitors on murine lung that had been exposed to MHV-1. Lungs were fixed with 4% formaldehyde (PFA) and perfused with 25% barium sulfate via the trachea and imaged by microCT. The micro-CT images were acquired using a VECTor4CT pre-clinical scanner (MILabs B.V., Utrecht, Netherlands) equipped with a cone beam X-ray CT system. The measurements used an acceleration voltage of 50 kVp and X-ray tube current of 430 μA in the ultra-focus mode, allowing acquisition of 3,600 projections with exposure time 40 ms, resulting in a 25 μm resolution. Tomographic CT images of FIG. 2B were compiled using MILabs reconstruction software. For quantification and segmentation, CT image data was manually processed using PMOD 3.9 software (PMOD Technologies Ltd., Zurich, Switzerland).

[3] = tested on: BEAS-2B cells infected with HCoV-OC43; assay: cell viability by cell count in HCoV-OC43 infected BEAS-2B cells; assay type: cell-based, human; details: 1 uM, 48 h treatment from 24 h post infection, endpoint 72 h, FIG. 1A
Experimental: as §1, §2
An apoptosis study was conducted (see FIGS. 1A-1C). […] Cells were counted and then seeded in a cell culture plate overnight. […] Cell viability was measured by cell count (see FIG. 1A). Apoptotic cells were measured by TUNEL staining (see FIG. 1B) (see Archer, S. L., et al., Redox Biol. (2022) 58:102508). […] Viral loads were quantified using qRT-PCR (see FIG. 1C). mRNA level of HCoV-OC43 N protein was measured and compared among treatment groups.

[4] = MHV-1 infected mice, vs vehicle, FIG. 2A

CN1C(CC2=NC(C3CCOCC3)CC(=O)N2)=NCc2ccccc21 (stereo not shown) [Compound 1, 2-[(1-methyl-1,4-dihydroquinazolin-2-yl)methyl)-6-(tetrahydro-2H-pyran-4-yl)-5,6-dihydropyrimidin-4 (3H)-one]
apoptosis (TUNEL positive cells) ([1]; HCoV-OC43, 10 uM): reduced | effectiveness in the in vitro screening to confirm biological activity [1]: particularly effective | viral load (Relative N expression, Nucleocapsid mRNA) (HCoV-OC43; HCoV-OC43, 10 uM): reduced viral load

CCN(CC)C(=O)c1nc2ccccc2cc1C(=O)c1cc(=O)[nH]c2ccccc12 [Compound 3, N,N-diethyl-3-(2-oxo-1,2-dihydroquinoline-4-carbonyl) quinoline-2-carboxamide]
apoptosis (TUNEL positive cells) ([1]; HCoV-OC43, 10 uM): reduced | effectiveness in the in vitro screening to confirm biological activity [1]: particularly effective | viral load (Relative N expression, Nucleocapsid mRNA) (HCoV-OC43; HCoV-OC43, 10 uM): reduced viral load

O=C1c2ccccc2C(=O)N1CCc1c[nH]c2ccc(OCc3ccccc3)cc12 [Compound 6, 2-(2-(5-(benzyloxy)-1H-indol-3-yl)ethyl) isoindoline-1,3-dione]
apoptosis (TUNEL positive cells) ([1]; HCoV-OC43, 10 uM): reduced | effectiveness in the in vitro screening to confirm biological activity [1]: particularly effective | viral load (Relative N expression, Nucleocapsid mRNA) (HCoV-OC43; HCoV-OC43, 10 uM): lowers the viral titer; also recorded: reduced viral load | lung edema [2, 4]: reduced lung edema | structural damage of the lungs [2, 4]: significantly less structural damage | lung perfusion (micro-CT, barium contrast) ([2]; MHV-1 infected mice, vs vehicle, FIG. 2B): increased lung perfusion | hypoxic pulmonary vasoconstriction (rise in RVSP with hypoxia) ([2]; MHV-1 infected mouse, 10% O2 for 10 min, one mouse per group, FIG. 2C): restored hypoxic pulmonary vasoconstriction

O=C1c2ccncc2C(=O)c2c1[nH]c1ccccc21 [Drpitor1a, reference compound]
cell numbers (cell count) after HCoV-OC43 infection [3]: reversed | apoptosis (TUNEL positive cells) ([1]; HCoV-OC43, 1 uM): reduced | viral load (Relative N expression, Nucleocapsid mRNA) (HCoV-OC43; HCoV-OC43, 1 uM): reduced viral load
